The test system of one series is mice. The series is described as follows: Determination of the 50% lethal dose (LD50) in mice. The note with it: mice, IP. Here is the method:
(§1) The toxicity of the compounds of the invention was determined by the following test:
(§2) Determination of the 50% lethal dose (LD50) in mice
(§3) The test product was administered intraperitoneally to groups of 5 male mice and 5 female mice at a rate of 0.1 ml per 10 g of body weight.

Another series can be described thus: in vivo. The note with it: mouse, in vivo, ip. Here is the method: as §1, §2, §3
Another series has as its system yohimbine toxicity. The series is described as follows: Yohimbine test (yohimbine toxicity). In kind it is in vivo. The note with it: 24 h; mouse; IP; yohimbine 25 mg/kg IP. Here is the method: The test derivative is administered 30 min before the injection of yohimbine (25 mg/kg IP).
The number of deaths is counted 24 h after the injection of yohimbine.

The subject of series [1] is mouse muscle-relaxing action. Briefly: Muscle-relaxing action (traction test). The class given is in vivo. Conditions: IP, doses in mg.kg^-1. An excerpt:
3. Muscle-relaxing action (traction test)
This test assesses the presence or absence of redressments in a mouse brought up to a horizontal wire with its front paws.
The number of mice which are unable to grip the wire with one of their back paws within 5 s is noted.
A 50% effective dose can be calculated from the results obtained.

The next series relates to motor activity of mice. Briefly: Study of the spontaneous motility (photoelectric actimeter). The class given is in vivo. The note with it: mouse, IP; for Activity (spontaneous motility): doses in mg.kg^-1. Here is the method: 1. Study of the spontaneous motility
The motor activity of mice was determined using a Boissier and Simon photoelectric actimeter.
The mice are placed in groups of five in a box closed with a lid, through which two perpendicular rays of light pass; the mice cut across these rays as they move.
These movements are counted by a meter, which is read 30 min and 1 h after the administration of the test derivative.

Series [2] concerns pain syndrome caused by phenylbenzoquinone (PBQ). Briefly: Peripheral analgesic activity (phenylbenzoquinone). The class given is in vivo. The note with it: mouse; IP. Here is the method: 5. Peripheral analgesic activity
A peritoneal pain is caused in mice by the intraperitoneal injection of phenylbenzoquinone (PBQ).
The test assesses the decrease in the pain syndrome, characterized by an abdominal twisting movement, which is caused by injecting the test derivative 30 min before the administration of PBQ.
The 50% effective dose is calculated from the percentage decrease in the pain syndrome relative to the control animals.

For series [3], the system named is head twitches induced by 5-HTP. Briefly: Head twitches caused by 5-hydroxytryptophane (5-HTP). The note with it: Mus musculus; male mice; IP; 5-HTP 4 mg/kg; read-out: Antagonism of the head twitches induced by 5-HTP: decrease as from dose. The class given is in vivo. Here is the method:
1. Head twitches caused by 5-hydroxytryptophane (5-HTP)
(§4) Animals: male mice of 25±1 g
At time T-3 h, 100 mg/kg of pargyline were injected intraperitoneally.
(§5) At time T-30 minutes, the test product or distilled water (control) was injected intraperitoneally.
At time T=O, 5-HTP was injected intraperitoneally at a dose of 4 mg/kg.
All the jerky head movements made by the mice were observed over a 1-minute period every twelve minutes.
(§6) The mean number of movements was calculated and compared with the control group.

The subject of series [4] is head twitches induced by 5-MeODMT. The series is described as follows: Head twitches caused by 5-methoxydimethyltryptamine (5-MeODMT). The class given is in vivo. Conditions: Mus musculus; male mice; IP; 5-MeODMT 4 mg/kg; read-out: Antagonism of the head twitches induced by 5-MeODMT: decrease as from dose. Here is the method:
2. Head twitches caused by 5-methoxydimethyltryptamine (5-MeODMT)
as §4
At time T-3 hours, 100 mg/kg of pargyline were injected intraperitoneally.
as §5
At time T=O, 5-MeODMT was injected intraperitoneally at a dose of 4 mg/kg.
The number of head twitches was observed.
as §6

The subject of another series is central nervous system. The series is described as follows: Pharmacological tests on the central nervous system, overall result. The class given is in vivo, mouse, rat. The note with it: overall statement on Table III. Here is the method: The pharmacological properties of the compounds of the invention were determined using the following tests: Experimental protocols The results obtained are collated in Table III below. […]

The test system of series [5] is penile erections and yawning. Briefly: Penile erections caused by apomorphine. The class given is in vivo. Conditions: Rattus norvegicus; rats; IP; apomorphine 0.20 mg/kg; read-out: Antagonism of the penile erections and yawning: antagonism as from dose. Here is the method: 3. Penile erections caused by apomorphine
The test product was administered parenterally or orally to rats, placed in a transparent cage, 30 minutes before the intraperitoneal injection of 0.20 mg/kg of apomorphine.
The number of penile erections was recorded over the 30 minutes following the injection of apomorphine.
A statistical study was carried out by comparison with the numbers of erections in the control rats.

Series [6] relates to antiserotoninergic activity. Briefly: Antiserotoninergic activity tests, overall result. The class given is in vivo, mice, rats. The note with it: overall statement on Table IV. An excerpt: The compound of Example 1 was furthermore tested for its antiserotoninergic activity according to the following tests: […]
For series [7], the system named is hyperthermia and clinical signs after tranylcypromine and tryptophan. Briefly: Grahame Smith's test. The class given is in vivo. Conditions: rats; PO. Here is the method: Animals: male rats of 200±10 g
At time T-30 minutes, the test product was administered intraperitoneally.
At time T=O, an MAOI was administered intraperitoneally (tranylcypromine, 20 mg/kg).
At time T+20 minutes, 250 mg/kg of tryptophan were administered (IP).
The temperature of the rats was recorded every 30 minutes for 200 minutes and the various clinical signs (motor agitation--hypersalivation--catatonia of the tail--hyperesthesia--thrashing of the tail, etc.) were noted on a scale of 0 to 1.
The mean temperatures and the average symptoms observed were calculated by comparison with the controls.

A value given as a limit tells only on which side of the number the result lay.

The term LD50 denotes the dose at which mortality reaches 50%. As a reminder, the ED50 is the midpoint of the dose-response relation. Read a low ED50 as an effect at a small dose. On to `Fc1ccc(OCCCN2CCN(CCC=C(c3ccccc3)c3ccccc3)CC2)cc1` [Compound 6], for which, in the series with mice, the “FIDUCIAL LIMITS of LD50, CALCULATION ACCORDING TO LITCHFIELD and WILCOXON” value was 206 to 296 mg/kg. Besides, the LD50 in “in vivo” turned out to be 247 mg/kg. In the series on yohimbine toxicity, the 50% effective dose (ED50) was 25 mg/kg.
In the case of `O=C(O)CCCCCCNC1c2ccccc2CCc2ccccc21` [AMINEPTINE], in series [1], the “Muscle-relaxing action, traction test” value is listed as “No action”.
Regarding `Cc1ccc(OCCCCN2CCN(CCC=C(c3ccccc3)c3ccccc3)CC2)cc1` [Compound 14], the “Activity (spontaneous motility)” value in the series with motor activity of mice was “Decrease”. The figures for the ED50 (in series [2]; in the series on yohimbine toxicity) were 2.5 mg/kg and > 25 mg/kg, respectively.
For the compound `O=C(CCCN1CCN(CCC=C(c2ccccc2)c2ccccc2)CC1)c1ccc(F)cc1` [Compound 7], the ED50 is 7.5 mg/kg in the series with motor activity of mice and > 25 mg/kg with yohimbine toxicity.
As to `Fc1ccc(OCCN2CCN(CCC=C(c3ccccc3)c3ccccc3)CC2)cc1` [Compound 1, 1-[(1,1-diphenyl)-1-buten-4-yl]-4-[1-(2-(4-fluorophenoxy)ethyl]piperazine dimethanesulfonate], the ED50 in series [2] amounted to 1.5 mg/kg; in the series with yohimbine toxicity, 31 mg/kg. In addition, the “FIDUCIAL LIMITS of LD50, CALCULATION ACCORDING TO LITCHFIELD and WILCOXON” value with mice was 195 to 274 mg/kg. The same compound yielded an LD50 in “in vivo” of 231 mg/kg. The minimal effective dose is ≥ 18.8 mg/kg in [3], ≥ 6.25 mg/kg in series [4] and ≥ 6.25 mg/kg in [5]. Further, the “antidepressant / central nervous system activity” value with central nervous system is listed as “antidepressants with a greater activity than the known antidepressants”. The antiserotoninergic activity result in [6] was “possesses an antiserotoninergic activity”. Moreover, in [7], the “Grahame Smith's test: decrease at dose” value is 37.5 mg/kg.
As for `CN(C)CCCN1c2ccccc2CCc2ccccc21` [IMIPRAMINE], the “Muscle-relaxing action, traction test” value in series [1] is reported as “No action”.
Compound `Fc1ccc(OCCN2CCN(CCCC=C(c3ccccc3)c3ccccc3)CC2)cc1` [Compound 16] returned an ED50 in series [2] of 4.5 mg/kg.
With `Fc1ccc(OCCN2CCN(CCC=C(c3ccccc3)c3ccc(F)cc3)CC2)cc1` [Compound 17], the ED50 in series [2] was 5.2 mg/kg; with yohimbine toxicity, > 25 mg/kg.
Consider `Cc1ccccc1OC(CCN1CCN(CCC=C(c2ccccc2)c2ccccc2)CC1)c1ccccc1` (stereo not drawn) [Compound 4], for which the “Activity (spontaneous motility)” value in the series with motor activity of mice is “Increase”. Further, it took a dose of 1.5 mg/kg to reach the 50% effect level in series [2] (ED50). In addition, in the series on mice, the “FIDUCIAL LIMITS of LD50, CALCULATION ACCORDING TO LITCHFIELD and WILCOXON” value is 279 to 453 mg/kg. The compound also had an LD50 in “in vivo” of 386 mg/kg.
For the compound `Fc1ccc(OCCCCN2CCN(CCC=C(c3ccccc3)c3ccccc3)CC2)cc1` [Compound 8], the ED50 in [2] was 6.25 mg/kg; in the series on yohimbine toxicity, > 25 mg/kg. In the series with mice, the “FIDUCIAL LIMITS of LD50, CALCULATION ACCORDING TO LITCHFIELD and WILCOXON” value was 172 to 229 mg/kg. The compound further returned an LD50 in “in vivo” of 199 mg/kg.
Consider `Fc1ccc(OC(CCN2CCN(CCC=C(c3ccccc3)c3ccccc3)CC2)c2ccccc2)cc1` (stereo not drawn) [Compound 5], for which the “FIDUCIAL LIMITS of LD50, CALCULATION ACCORDING TO LITCHFIELD and WILCOXON” value with mice was 234 to 421 mg/kg. In addition, the LD50 in the series “in vivo” stood at 314 mg/kg.
